Consider one molecule from US11865126B2, “Method for treating anxiety disorders, headache disorders, and eating disorders with psilocybin” (priority 2019, dated 2024).

For the experiment, the system named is healthy subjects. As to the kind of experiment: Toronto Empathy Questionnaire (TEQ). Format: in vivo, human. From the text: In some embodiments, the Toronto Empathy Questionnaire (TEQ) is utilized to evaluate the safety and/or efficacy of psilocybin. The TEQ represents empathy as a primarily emotional process. […] The TEQ is a brief, reliable and valid instrument for the assessment of empathy. In some embodiments, after treating according to the methods of the disclosure, a subject's TEQ score increases by about 5%, about 10%, about 15%, about 20%, about 25%, about 30%, about 35%, about 40%, about 45%, about 50%, about 55%, about 60%, about 65%, about 70%, about 75%, about 80%, about 85%, about 90%, about 95%, or about 100%, about 110%, about 120%, about 130%, about 140%, about 150%, about 160%, about 170%, about 180%, about 190%, about 200%, about 210%, about 220%, about 230%, about 240%, about 250%, about 260%, about 270%, about 280%, about 290%, or about 300%, or more, compared to prior to treatment.
The following list of outcome measures are non-exhaustive. • a. The short-term change from Baseline (Day −1 [Visit 2]) to Day 7 (Visit 5) in cognitive measures of attention, spatial and working memory and executive function was measured by a composite score of the CANTAB Panel (Spatial Working Memory [SWM], Rapid Visual Information Processing [RVP], Paired Associates Learning [PAL]). • b. The short-term change from Baseline (Day −1 [Visit 2]) to Day 7 (Visit 5) in Social Cognition Panel scales (Pictorial Empathy Test [PET], Reading the Mind in the Eyes Test [RMET], Toronto Empathy Questionnaire [TEQ], Social Value Orientation [SVO], Scale of Social Responsibility [SSR]). • c. The change from Baseline (Day −1 [Visit 2]) to Day 28 (Visit 6) in cognitive measures of attention, spatial and working memory and executive function as measured by a composite score of the CANTAB Panel (SWM, RVP, PAL). • d. The long-term change from Baseline (Day −1 [Visit 2]) to Day 84 (Visit 7) in Social Cognition Panel scales (PET, RMET, TEQ, SVO, SSR). • e. Dose-related differences between cognitive effects of psilocybin at Baseline (Day −1 [Visit 2]), Day 7 (Visit 5) and Day 28 (Visit 6), as measured by a composite score of the CANTAB Panel (SWM, RVP, PAL). • f. Dose-related differences between psychological effects of psilocybin at Baseline (Day −1 [Visit 2]), Day 7 (Visit 5) and Day 84 (Visit 7), as measured by Social Cognition Panel scales (PET, RMET, TEQ, SVO, SSR). • g. Differences in cognitive effects of psilocybin between psilocybin-naïve and experienced subjects at Baseline (Day −1 [Visit 2]), Day 7 (Visit 5) and Day 28 (Visit 6), as measured by a composite score of the CANTAB Panel (SWM, RVP, PAL). • h. Differences in Positive and Negative Affect Schedule (PANAS) after study drug administration on Day 0 (Visit 3). • i. Differences between psilocybin and placebo in the Emotion Recognition Test (ERT), Intra-Extra Dimensional Set Shift (IED), One Touch Stockings (OTS), Verbal Fluency and Digit Span Forward at Day 7 (Visit 5). • j. A composite score of the CANTAB Panel, including the following tests: • i. Spatial Working Memory (SWM) (performed at Visit 2, Visit 5, and Visit 6). • ii. Rapid Visual Information Processing (RVP) (performed at Visit 2, Visit 5, and Visit 6). • iii. Paired Associates Learning (PAL) (performed at Visit 2, Visit 5, and Visit 6). • k. Cognitive Flexibility Panel • i. Emotion Recognition Task (ERT) (performed at Visit 5). • ii. Intra-Extra Dimensional Set Shift (IED) (performed at Visit 5). • iii. One Touch Stockings (OTS) (performed at Visit 5). • iv. Verbal Fluency (performed at Visit 5). • v. Digit Span Forward (performed at Visit 5). • l. Five Dimension Altered States of Consciousness questionnaire (5D-ASC) (performed at Visit 3). • m. PANAS (performed at Visit 2 and Visit 3). • n. NEO-Five Factor Inventory (NEO-FFI) (performed at Visit 2, Visit 5, and Visit 7). • o. Symptom Checklist-90 item (SCL-90) (performed at Visit 2, Visit 5, and Visit 7). • p. […]

In the case of `CN(C)CCc1c[nH]c2cccc(OP(=O)(O)O)c12` [psilocybin], for the setting “Day 7, MMRM”, the “TEQ change from baseline, LS mean difference Psilocybin 10 mg - Placebo” value is listed as 0.1; the “TEQ change from baseline, LS mean difference Psilocybin 25 mg - Placebo” value is reported as 0.2; the “TEQ change from baseline, LS mean difference Psilocybin 25 mg-10 mg” value stood at 0.1. Further, for the setting “Day 84, MMRM”, the “TEQ change from baseline, LS mean difference Psilocybin 10 mg - Placebo” value stood at 0.1; the “TEQ change from baseline, LS mean difference Psilocybin 25 mg - Placebo” value is given as 0.1; the “TEQ change from baseline, LS mean difference Psilocybin 25 mg-10 mg” value was 0.0. For the same molecule, under “Psilocybin 10 mg, Day 84, MMRM”, the “TEQ change from baseline, LS mean” value is −0.1. For the same molecule, the “TEQ change from baseline, LS mean” value (Psilocybin 25 mg, Day 84, MMRM) is reported as −0.0.
